Reference: paper PMC6891598, “Application of N-Dodecyl L-Peptide to Enhance Serum Stability while Maintaining Inhibitory Effects on Myometrial Contractions Ex Vivo” (Molecules, 2019)
Entries after “also recorded” stand apart in the source; their conditions may differ. Structures can show the parent of a compound that is named as a salt. Residues, ends and D or L forms follow the SMILES beside them.

What was measured:
[1] = test system: murine myometrial tissue (PGF2α-induced contractions; FP); assay: ex vivo mouse myometrial tissue contraction assay (PGF2α-induced); design: species or system mouse (CD-1); conditions: post-partum CD-1 mouse myometrial strips, Krebs buffer pH 7.4, 37 °C, 20 min pretreatment with peptide at two concentrations, then PGF2α; 4–6 experiments per group, means ± SEM, t-test, p < 0.05 vs vehicle
Description: All the peptides were initially tested in an ex vivo mouse myometrial tissue contraction assay. Contractile activity was measured on tissue that was harvested post-partum and treated with prostaglandin F2α (PGFα) alone (control) or in the presence of peptides L-4b-4g, L-7, and L-8. […] Mean tension induced by KCl (as a positive control) was not affected by L-4d.
Pregnant CD-1 mice (16-17 days gestation, term 19 days) were obtained from Charles River Inc. and used according to a protocol of the Animal Care Committee of Hôpital Sainte-Justine according to the principles of the Guide for the Care and Use of Experimental Animals of the Canadian Council on Animal Care. The animals were maintained on standard laboratory chow under a 12:12 light:dark cycle and allowed free access to chow and water.
The uterus from the CD-1 mouse was obtained from the animal immediately after term delivery under anesthesia (2.5% isoflurane). Briefly, a midline abdominal incision was made and the uterine horns were rapidly excised, cleansed carefully of the surrounding connective tissues, and removed. Longitudinal myometrial strips (2 to 3 mm wide and 1 cm long) were dissected free from the uterus and mounted isometrically in organ tissue baths. The initial tension was set at 2 g. The tissue baths contained 20 mL of Krebs buffer of the following composition (in mM): 118 NaCl, 4.7 KCl, 2.5 CaCl2, 0.9 MgSO4, 1 KH2PO4, 11.1 glucose, and 23 NaHCO3 (pH 7.4). The buffer was equilibrated with 95% oxygen/5% carbon dioxide at 37 °C. Isometric tension was measured by a force transducer and recorded by a BIOPAC data acquisition system (BIOPAC MP150, Montreal, PQ, Canada). Experiments were begun after 1 h equilibration. Mean tension of spontaneous contractions was measured using a BIOPAC digital polygraph system (AcqKnowledge); the same parameters were also determined after addition of PGF2α in the presence or the absence of a 20 min-pretreatment with different FP inhibitors. At the start of each experiment, mean tension of spontaneous myometrial contractions was considered as a reference response. Changes in mean tension (g) were expressed as percentages of the initial reference response (% of baseline).
At the start of each experiments, mean tension of spontaneous myometrial contractions was considered as a reference response. Increase in mean tension (%) was expressed as percentages of (X/Y)-100, where X is the change in mean tension (g) induced by PGF2α and Y is the initial reference response (g). Data are representative of 4–6 experiments per treated group. All results are expressed as means ± SEM and were compared by Independent t-tests. Statistical tests were performed with GraphPad Prism 4.3 software and p < 0.05 was considered statistically significant.

[2] = solubility in water (observation on handling); format: physicochemical; conditions: qualitative observation on the purified, freeze-dried peptide
Description: Linear sequences of L- and D-PDC31 linked to 2-chlorotrityl resin (L- and D-1) were obtained by solid phase peptide synthesis using standard Fmoc/t-Bu protocols. Peptide resin L-1 was treated with the appropriate aldehyde 2 (Scheme 1). The imine resin was washed to remove excess aldehyde, and reductive amination was performed using sodium cyanoborohydride to provide secondary amine resin 3. Removal of the protecting groups and resin cleavage were achieved using a cocktail of 95:2.5:2.5 TFA:TES:H2O to provide N-alkyl- and N-PEG-grafted peptides 4, which were purified by RP-HPLC (Table 1). […] An inseparable mixture of mono- and bis-N-alkyl peptides was isolated by HPLC from reaction with aldehyde of shorter chain length.
Increased lipophilic character may promote peptide aggregation and decrease solubility in aqueous solvent. […] For biological assays, solubility issues were surmounted by forming salts and using small amounts of DMSO. The influence of their amphiphilic character during purification by RP-HPLC and double alkylation from the reductive amination sequence may account for the lower isolated yields of peptides 4, 7 and 8.

[3] = serum stability study (mouse serum/plasma, MS/MS); format: in vitro ADME; conditions: mouse plasma (method: serum), 37 °C, LC-MS/MS, internal standard L-4f
Description: Peptide L-4d was further examined for stability in serum and compared to L-PDC31. The two peptides were incubated at 37 °C in mouse plasma. Aliquots were removed at different time intervals and analyzed by mass spectrometry (MS/MS) to detect remaining amount of peptide (Figure 3).
Serum was […] and kept on ice throughout the procedure. Two blanks were prepared by adding 5 µL of DMSO to 95 µL of serum. These were incubated for 2 h and submitted to the same treatment as the other samples. Two series of vials containing 95 µL of serum were prepared and spiked with either 5 µL of L-PDC31 [0.4 mM] or L-4d [0.4 mM], and incubated for 120, 60, 30, 15, 10 and 5 min, respectively, after which 100 µL of 4% phosphoric acid was added. Two vials were also spiked with 5 µL L-PDC31 and L-4d, respectively, and immediately treated with phosphoric acid (time = 0 min). The vials were incubated for 5 min at 95 °C, cooled on ice for 2 min, treated with 600 µL of cold MeCN containing L-4f (0.02 mM) as internal standard, and incubated at –20 °C overnight. After the incubation period, the vials were vortexed for 2 min and centrifuged at 4 °C for 15 min. The supernatant was transferred into LC-MS vials and analyzed.
Results were expressed as: (AN/IS/AN0/IS0)∗100
AN and IS refer, respectively, to the analyte and internal standard MS signals. Both values are compared with initial injection at which time AN0 and IS0 were not incubated.

[4] = test system: prostaglandin F2α receptor (FP); conditions: cited from earlier work
Description: The development of PDC31 originated from a library of sequences based on the second extracellular loop of FP. Short lead peptides were analyzed initially using in vitro and ex vivo analyses. […] Moreover, addition of the dodecyl chain enhanced plasma stability.

In the case of `CCCCCCCCCCCCN[C@@H](C(=O)N[C@H](CC(C)C)C(=O)NCC(=O)N[C@H](Cc1c[nH]cn1)C(=O)N[C@H](CCCNC(N)=O)C(=O)N[C@H](CC(=O)O)C(=O)N[C@H](Cc1ccc(O)cc1)C(=O)N[C@H](CCCCN)C(=O)O)[C@H](C)CC` [D-4d, N-Dodecyl-D-Ile-D-Leu-Gly-D-His-D-Cit-D-Asp-D-Tyr- D-Lys-OH] (HELM PEPTIDE1{[CCCCCCCCCCCCN[C@@H](C(=O)[*:2])[C@H](C)CC].[dL].G.[dH].[NC(=O)NCCC[C@@H](N[*:1])C(=O)[*:2]].[dD].[dY].[dK]}$$$$V2.0), the “effect on PGF2α-induced contractions (mean tension) of myometrial tissue” value (“effect on PGF2α-induced contractions” below) [1] is reported as “trends suggesting protective effects; also recorded: lower potency than the unmodified D-peptide, PDC-31”.
For `CCCCCCN[C@H](C(=O)N[C@@H](CC(C)C)C(=O)NCC(=O)N[C@@H](Cc1c[nH]cn1)C(=O)N[C@@H](CCCNC(N)=O)C(=O)N[C@@H](CC(=O)O)C(=O)N[C@@H](Cc1ccc(O)cc1)C(=O)N[C@@H](CCCCN)C(=O)O)[C@@H](C)CC` [L-4b, N-Hexanyl-Ile-Leu-Gly-His-Cit-Asp-Tyr-Lys-OH] (HELM PEPTIDE1{[CCCCCCN[C@H](C(=O)[*:2])[C@@H](C)CC].L.G.H.[Cit].D.Y.K}$$$$V2.0), the “effect on PGF2α-induced contractions” value [1] was “trends suggesting protective effects; also recorded: not statistically significant”.
With `CCCCCCCCCCCCCN[C@H](C(=O)N[C@@H](CC(C)C)C(=O)NCC(=O)N[C@@H](Cc1c[nH]cn1)C(=O)N[C@@H](CCCNC(N)=O)C(=O)N[C@@H](CC(=O)O)C(=O)N[C@@H](Cc1ccc(O)cc1)C(=O)N[C@@H](CCCCN)C(=O)O)[C@@H](C)CC` [L-4e, N-Tridecanyl-Ile-Leu-Gly-His-Cit-Asp-Tyr-Lys-OH] (HELM PEPTIDE1{[CCCCCCCCCCCCCN[C@H](C(=O)[*:2])[C@@H](C)CC].L.G.H.[Cit].D.Y.K}$$$$V2.0) the solubility in water [2] was “Except for peptide 4e, bearing the 18-carbon alkyl chain, peptides 4 were all soluble in water”.
For `CC[C@H](C)[C@H](NCCOCCOCCOCCOC)C(=O)N[C@@H](CC(C)C)C(=O)NCC(=O)N[C@@H](Cc1c[nH]cn1)C(=O)N[C@@H](CCCNC(N)=O)C(=O)N[C@@H](CC(=O)O)C(=O)N[C@@H](Cc1ccc(O)cc1)C(=O)N[C@@H](CCCCN)C(=O)O` [L-4g, N-2,7,8,11-tetraoxytetradecane-Ile-Leu-Gly-His-Cit-Asp-Tyr-Lys-OH] (HELM PEPTIDE1{[CC[C@H](C)[C@H](NCCOCCOCCOCCOC)C(=O)[*:2]].L.G.H.[Cit].D.Y.K}$$$$V2.0), the “effect on PGF2α-induced contractions” value [1] was “Neither PEGylated peptide L-4g nor N-farnesyl peptide L-7 exhibited activity”.
With `CC[C@H](C)[C@H](NCC=C(C)CCC=C(C)CCC=C(C)C)C(=O)N[C@@H](CC(C)C)C(=O)NCC(=O)N[C@@H](Cc1c[nH]cn1)C(=O)N[C@@H](CCCNC(N)=O)C(=O)N[C@@H](CC(=O)O)C(=O)N[C@@H](Cc1ccc(O)cc1)C(=O)N[C@@H](CCCCN)C(=O)O` [L-7, N-Farnesyl-Ile-Leu-Gly-His-Cit-Asp-Tyr-Lys-OH] (HELM PEPTIDE1{[CC[C@H](C)[C@H](NCC=C(C)CCC=C(C)CCC=C(C)C)C(=O)[*:2]].L.G.H.[Cit].D.Y.K}$$$$V2.0) the “effect on PGF2α-induced contractions” value [1] was “Neither PEGylated peptide L-4g nor N-farnesyl peptide L-7 exhibited activity” and the solubility in water [2] was “soluble in water”.
For `CCCCCCCCCCCC(=O)N[C@H](C(=O)N[C@@H](CC(C)C)C(=O)NCC(=O)N[C@@H](Cc1c[nH]cn1)C(=O)N[C@@H](CCCNC(N)=O)C(=O)N[C@@H](CC(=O)O)C(=O)N[C@@H](Cc1ccc(O)cc1)C(=O)N[C@@H](CCCCN)C(=O)O)[C@@H](C)CC` [L-8 HCl salt] (HELM PEPTIDE1{[CCCCCCCCCCCC(=O)[*:2]].I.L.G.H.[Cit].D.Y.K}$$$$V2.0), the solubility in water ([2]; listed as 8 hydrochloride salt) was “dissolved readily in water”.
With `CCCCCCCCCCCC(=O)N[C@H](C(=O)N[C@@H](CC(C)C)C(=O)NCC(=O)N[C@@H](Cc1c[nH]cn1)C(=O)N[C@@H](CCCNC(N)=O)C(=O)N[C@@H](CC(=O)O)C(=O)N[C@@H](Cc1ccc(O)cc1)C(=O)N[C@@H](CCCCN)C(=O)O)[C@@H](C)CC` [L-8, N-Dodecanoyl-Ile-Leu-Gly-His-Cit-Asp-Tyr-Lys-OH] (HELM PEPTIDE1{[CCCCCCCCCCCC(=O)[*:2]].I.L.G.H.[Cit].D.Y.K}$$$$V2.0) the “effect on PGF2α-induced contractions” value [1] was “inactive” and the solubility in water [2] was “poor solubility; also recorded: aqueous solubility issues”.
In the case of `CC[C@H](C)[C@H](N)C(=O)N[C@@H](CC(C)C)C(=O)NCC(=O)N[C@@H](Cc1c[nH]cn1)C(=O)N[C@@H](CCCNC(N)=O)C(=O)N[C@@H](CC(=O)O)C(=O)N[C@@H](Cc1ccc(O)cc1)C(=O)N[C@@H](CCCCN)C(=O)O` [L-PDC31, H-Ile-Leu-Gly-His-Cit-Asp-Tyr-Lys-OH] (HELM PEPTIDE1{I.L.G.H.[Cit].D.Y.K}$$$$V2.0), the “time to complete degradation in mouse plasma” value ([3]; 5 µL 0.4 mM peptide in 95 µL serum) is reported as at most 5 min and the “stability in mouse plasma, in words” value ([3]; incubation up to 2 hours) is reported as “rapidly degraded in plasma”.
In the case of “H-ile-leu-Gly-his-arg-asp-tyr-lys-OH [PDC113]”, the “activity as FP inhibitor, in words” value [4] is given as “active FP inhibitor”.
In the case of “N-Octadecanyl-Ile-Leu-Gly-His-Cit-Asp-Tyr-Lys-OH [L-4f]”, the “effect on PGF2α-induced contractions” value [1] is reported as “trends suggesting protective effects; also recorded: not statistically significant” and the solubility in water [2] is reported as “required a small amount of DMSO to completely dissolve; also recorded: aqueous solubility issues; also recorded: poorly soluble in water”.
